Test results: patent US20260109729A1, “RUTHENIUM COMPLEXES FOR INHIBITION OF GALECTINS, METHOD OF THEIR PREPARATION, AND USE THEREOF” (priority 2023, published 2026)
Like-named read-outs stand apart in the source and are kept apart here.

Experiments:
human galectin-1 [1] = molecular target: T1, human galectin-1 (Homo sapiens, UniProt P09382); assay: Fluorescence anisotropy competitive inhibition assay, galectin 1; type: binding; design: His6-GST (N, cleaved yes); made in house; host or cells: E. coli BL21 RILP; settings: for Ki: Ki calculated from IC50 with online calculator, read-out: Ki against human galectin-1; for Ki / IC50: average and standard deviation; for affinity to galectin-1 compared with the fluorescent probe: exact Ki not determinable, given as possible range; for IC50: protein 500 nM, probe 100 nM, at least three measurements, read-out: IC50 against human galectin-1 under measured condition
T1 sequence (P09382 whole entry): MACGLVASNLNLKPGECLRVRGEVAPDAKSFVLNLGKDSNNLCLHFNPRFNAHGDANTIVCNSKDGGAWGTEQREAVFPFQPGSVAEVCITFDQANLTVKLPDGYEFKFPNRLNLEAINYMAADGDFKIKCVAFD
Experimental: Analytical Biochemistry 2004, 334 (1), 36-47, page 39, paragraph “Fluorescence Polarization”. As a competitive fluorescent probe, the compound 3,3′-dideoxy-3-[4-(fluorescein-5-yl-carbonylamino-methyl)-1H-1,2,3-triazol-1-yl]-3′-[4-(3-fluorophenyl)-1H-1,2,3-triazol-1-yl]-1,1′-sulfanediyl-di-β-D-galactopyranoside was used in the measurements. Fluorescence anisotropy was measured using a Tecan Spark multimode microplate reader equipped with fluorescence polarization filters and black polystyrene round-bottomed microtiter plates (Corning®, 384 wells) in samples with a final volume of […]. The samples were incubated in the dark for 30 minutes before measurement.
The Kd values were obtained using nonlinear regression performed by GraphPad Prism software (version 10.0.2, GraphPad, USA) for direct ligand-protein interaction using the formula: A=A0+(Amax−A0)×([G]/(Kd+[G])), where A0 is the anisotropy of the probe in the absence of galectin, Amax is the maximum achieved anisotropy of the probe with increasing galectin concentration, [G] is the total galectin concentration in a measured sample, and A is the measured anisotropy of the measured sample. […] Raw anisotropy data from the reader were plotted against concentration using GraphPad Prism software (version 10.0.2, GraphPad, USA) and nonlinear fitting “[Inhibitor]vs. response—Variable slope (four parameters)” analysis was used to calculate the IC50 values (half-maximal inhibitory concentration) for each titration. The IC50 values from each titration experiment were then used to calculate the inhibition constant Ki using an online calculator (http://websites.umich.edu/-shaomengwanglab/software/calc_ki/index.html). The used model is described in the following publication: Development and optimization of a binding assay for the XIAP BIR3 domain using fluorescence polarization, Analytical Biochemistry 2004, 332 (2), 261-273.

human galectin-3-CRD = molecular target: T2, human galectin-3-CRD (Homo sapiens, UniProt P17931); assay: Fluorescence anisotropy competitive inhibition assay, galectin 3; type: binding; settings: average and standard deviation; for Ki: Ki calculated from IC50 with online calculator, read-out: Ki against human galectin 3-CRD; for IC50: protein 50 nM, probe 5 nM, at least three measurements, read-out: IC50 against human galectin-3-CRD under measured condition
T2 construct: human galectin-3-CRD; fused on or other part: N-terminal His6-GST tag, cleaved off by TEV protease before the fluorescence anisotropy test
T2 sequence (P17931 114-250 limits assumed): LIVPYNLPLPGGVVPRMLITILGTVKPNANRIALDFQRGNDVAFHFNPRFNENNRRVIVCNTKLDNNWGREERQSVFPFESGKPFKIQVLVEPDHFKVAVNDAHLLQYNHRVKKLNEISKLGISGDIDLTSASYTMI
Experimental: As a competitive fluorescent probe, the compound 3,3′-dideoxy-3-[4-(fluorescein-5-yl-carbonylamino-methyl)-1H-1,2,3-triazol-1-yl]-3′-[4-(3-fluorophenyl)-1H-1,2,3-triazol-1-yl]-1,1′-sulfanediyl-di-β-D-galactopyranoside was used in the measurements. Fluorescence anisotropy was measured using a Tecan Spark multimode microplate reader equipped with fluorescence polarization filters and black polystyrene round-bottomed microtiter plates (Corning®, 384 wells) in samples with a final volume of […]. The samples were incubated in the dark for 30 minutes before measurement.
The Kd values were obtained using nonlinear regression performed by GraphPad Prism software (version 10.0.2, GraphPad, USA) for direct ligand-protein interaction using the formula: A=A0+(Amax−A0)×([G]/(Kd+[G])), where A0 is the anisotropy of the probe in the absence of galectin, Amax is the maximum achieved anisotropy of the probe with increasing galectin concentration, [G] is the total galectin concentration in a measured sample, and A is the measured anisotropy of the measured sample. […] Raw anisotropy data from the reader were plotted against concentration using GraphPad Prism software (version 10.0.2, GraphPad, USA) and nonlinear fitting “[Inhibitor]vs. response—Variable slope (four parameters)” analysis was used to calculate the IC50 values (half-maximal inhibitory concentration) for each titration. The IC50 values from each titration experiment were then used to calculate the inhibition constant Ki using an online calculator (http://websites.umich.edu/-shaomengwanglab/software/calc_ki/index.html).

A2780 = assay: MTT cytotoxicity assay, A2780; type: cell-based, human; settings: ovarian carcinoma, 24-72 hours incubation
Experimental: (§1) This assay is based on the reduction of the yellow soluble 3-[4,5-dimethylthiazol-2-yl]-2,5-diphenyl tetrazolium bromide (MTT) to insoluble formazan (blue star-shaped crystals). The reaction takes place on the mitochondrial membrane of living cells. Subsequently, the formazan is dissolved by adding a strong detergent (dimethyl sulfoxide, DMSO), and the color is evaluated spectrophotometrically at a wavelength of 570-595 nm.
(§2) Human cell lines derived from ovarian carcinoma (A2780, SK-OV-3), breast carcinoma (MDA-MB-231, MCF-7), and non-tumor epithelial line MCF-10A were used for the cytotoxicity test. Additionally, a cell line derived from embryonic kidney cells HEK293 was used as a control. A2780 cells were cultured in RPMI 1640 medium (Sigma-Aldrich) containing 10% fetal bovine serum (Biochrom AG), 2 mM L-glutamine (Gibco), and 100 U/mL penicillin/streptomycin (Biosera). SK-OV-3 cells were cultured in McCoy's medium (Sigma-Aldrich) containing 10% fetal bovine serum (Biochrom AG) and 100 U/mL penicillin/streptomycin (Biosera). […] After dissolving the blue crystals, the absorbance was measured in the wells of the plate on an ELISA Reader (Multidetection reader Infinititte M1000 PRO (Tecan Group Ltd, CH)) at a wavelength of 570-595 nm. Evaluation of IC50 as the inflection point of the curve of measured absorbance values using the GraphPad Prism software (version 10.0.2, GraphPad, USA).

MCF-7 = assay: MTT cytotoxicity assay, MCF-7; type: cell-based, human; settings: breast carcinoma, 24-72 hours incubation
Experimental: as §1, §2

MDA-MB-231 = assay: MTT cytotoxicity assay, MDA-MB-231; type: cell-based, human; settings: breast carcinoma, 24-72 hours incubation
Experimental: as §1, §2

SK-OV-3 = assay: MTT cytotoxicity assay, SK-OV-3; type: cell-based, human; settings: ovarian carcinoma, 24-72 hours incubation
Experimental: as §1, §2

MCF-10A = assay: MTT cytotoxicity assay, MCF-10A; type: cell-based, human; settings: non-tumor epithelial line, 24-72 hours incubation
Experimental: as §1, §2

HEK-293 = assay: MTT cytotoxicity assay, HEK-293; type: cell-based, human; settings: embryonic kidney control cell line, 24-72 hours incubation
Experimental: as §1, §2

human galectin-1 [2] = molecular target: T1, human galectin-1; settings: read-out: IC50 against human galectin-1; competitive ELISA, immobilized asialofetuin, His6-GST-Gal-1; average and standard deviation, at least 3 measurements
Experimental: (§3) An immobilized competitive ligand, asialofetuin (ASF), a glycoprotein terminated with LacNAc residues interacting with galectins, was used. Wells of microtiter plates (96-well BRAND plates-F-pureGrade, BRAND, Germany) were coated with ASF ([…] in 0.1M CO3^2−/HCO3^− buffer pH 9-9.8; 50 μL per well) and incubated overnight in a humid chamber at […]. Subsequently, wells were washed with 1×200 μL PBS (137 mM NaCl, 2.7 mM KCl, 8 mM Na2HPO4, and 2 mM KH2PO4, pH 7.4). PBS-Tween washes were performed 3×5 min following each subsequent step. The wells were blocked with 3% BSA in PBS (200 μL per well) and incubated for 1 hour at room temperature. Increasing concentrations of inhibitors in PBS buffer were mixed with His6-GST-Gal-3 or His6-GST-Gal-1 (target concentration 5 or 10 μM) and incubated in wells with ASF for 1 hour. […] The signal intensity was measured spectrophotometrically using the Multidetection reader Infinititte M1000 PRO (Tecan Group Ltd, CH) at 450 nm and corresponds to the amount of bound galectin. The respective inhibitory constant (IC50) was calculated from nonlinear regression (dose-response inhibition slope) of sigmoidal curves using GraphPad Prism software (version 10.0.2, GraphPad, USA).

human galectin-3 = molecular target: T3, human galectin-3 (Homo sapiens, UniProt P17931); assay: Competitive ELISA with immobilized asialofetuin, galectin 3; type: binding; settings: His6-GST-Gal-3, average and standard deviation, at least 3 measurements, read-out: IC50 against human galectin-3
T3 construct: made in house; host or cells: E. coli BL21 RILP
T3 sequence (P17931 whole entry): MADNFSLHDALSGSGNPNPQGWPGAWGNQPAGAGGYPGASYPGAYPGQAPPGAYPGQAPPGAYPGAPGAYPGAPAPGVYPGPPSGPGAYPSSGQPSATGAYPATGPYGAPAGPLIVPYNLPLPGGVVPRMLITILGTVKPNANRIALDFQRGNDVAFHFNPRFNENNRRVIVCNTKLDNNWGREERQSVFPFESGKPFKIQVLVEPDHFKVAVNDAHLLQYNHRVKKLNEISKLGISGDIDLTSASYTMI
Experimental: as §3

Ruthenium Complex with Benzene and Cl Ligands and PF6^− Counterions [Compound 7]
Ki (human galectin-1 [1]): < 0.005 µM | affinity to galectin-1 compared with the fluorescent probe (human galectin-1 [1]): significantly better affinity to galectin-1 than used fluorescent probe | IC50 (human galectin-1 [1]): 0.307 ± 0.033 µM | Ki (human galectin-3-CRD): 3.54 ± 0.32 µM | IC50 (human galectin-3-CRD): 16.8 ± 1.5 µM

Ruthenium Complex with Hexamethylbenzene and Cl Ligands and PF6^− Counterions [Compound 8]
Ki (human galectin-1 [1]): 0.114 ± 0.011 µM | IC50 (human galectin-1 [1]): 0.498 ± 0.026 µM | Ki (human galectin-3-CRD): 43.4 ± 13 µM | IC50 (human galectin-3-CRD): 205 ± 63 µM

Ruthenium Complex with p-Cymene and Cl Ligands and BF4^− Counterions [Compound 5]
Ki (human galectin-1 [1]): < 0.005 µM | affinity to galectin-1 compared with the fluorescent probe (human galectin-1 [1]): significantly better affinity to galectin-1 than used fluorescent probe | IC50 (human galectin-1 [1]): 0.187 ± 0.004 µM | Ki (human galectin-3-CRD): 10.7 ± 1.9 µM | IC50 (human galectin-3-CRD): 50.7 ± 9 µM

Ruthenium Complex with p-Cymene and Cl Ligands and Cl^− Counterions [Compound 4]
IC50 (A2780): > 200 µM | IC50 (MCF-7): > 200 µM | IC50 (MDA-MB-231): > 200 µM | IC50 (SK-OV-3): > 200 µM | IC50 (MCF-10A): > 200 µM | Ki (human galectin-1 [1]): 0.018 ± 0.011 µM | IC50 (human galectin-1 [1]): 0.328 ± 0.018 µM | IC50 (HEK-293): 158 ± 42 µM | IC50 (human galectin-1 [2]): 0.026 ± 0.004 µM | Ki (human galectin-3-CRD): 21.2 ± 2.7 µM | IC50 (human galectin-3-CRD): 100 ± 12 µM | IC50 (human galectin-3): 87.2 ± 4.4 µM

Ruthenium Complex with p-Cymene and Cl Ligands and PF6^− Counterions [Compound 6]
IC50 (MDA-MB-231): 141 ± 8 µM | IC50 (SK-OV-3): > 200 µM | Ki (human galectin-1 [1]): < 0.005 µM | affinity to galectin-1 compared with the fluorescent probe (human galectin-1 [1]): significantly better affinity to galectin-1 than used fluorescent probe | IC50 (human galectin-1 [1]): 0.231 ± 0.017 µM | IC50 (HEK-293): 174 ± 28 µM | Ki (human galectin-3-CRD): 15.2 ± 0.2 µM | IC50 (human galectin-3-CRD): 71.7 ± 0.84 µM | IC50 (human galectin-3): 104 ± 38 µM

Ruthenium Complex with p-Cymene and I Ligands and I^− Counterions [Compound 9]
Ki (human galectin-1 [1]): 0.037 ± 0.009 µM | IC50 (human galectin-1 [1]): 0.37 ± 0.016 µM | Ki (human galectin-3-CRD): 19 ± 3.3 µM | IC50 (human galectin-3-CRD): 89.8 ± 16 µM

Ruthenium Complex with p-Cymene and I Ligands and PF6^− Counterions [Compound 10]
Ki (human galectin-1 [1]): 0.023 µM | IC50 (human galectin-1 [1]): 0.347 ± 0.013 µM | Ki (human galectin-3-CRD): 15.6 ± 1.8 µM | IC50 (human galectin-3-CRD): 73.5 ± 8.1 µM
